From ChEMBL document CHEMBL5465560, “Selectivity Literature for EUbOPEN Chemogenomic Library” (2024)

How the values were obtained:
[1] = biological target: Histone-lysine N-methyltransferase 2A (Homo sapiens) (UniProt Q03164); assay: Selectivity interaction (Transferase panel (protein, RNA, and DNA methyltransferases. and EP300 (acetyltransferase))) EUB0000270b MLL
[2] = biological target: Cyclin-dependent kinase 2 (Homo sapiens, UniProt P24941); assay: Selectivity interaction (ActivX KiNativ screen (kinase selectivity in THP-1 cell lysates)) EUB0000639a CDK2; type: subcellular; conditions: lysate, at 0.01 µM
[3] = biological target: T1, Serine/threonine-protein kinase Nek1 (Homo sapiens) (UniProt Q96PY6); assay: Selectivity interaction (Kinase panel (Invitrogen)) EUB0000639a NEK1; conditions: at 200 nM
T1 sequence (whole entry): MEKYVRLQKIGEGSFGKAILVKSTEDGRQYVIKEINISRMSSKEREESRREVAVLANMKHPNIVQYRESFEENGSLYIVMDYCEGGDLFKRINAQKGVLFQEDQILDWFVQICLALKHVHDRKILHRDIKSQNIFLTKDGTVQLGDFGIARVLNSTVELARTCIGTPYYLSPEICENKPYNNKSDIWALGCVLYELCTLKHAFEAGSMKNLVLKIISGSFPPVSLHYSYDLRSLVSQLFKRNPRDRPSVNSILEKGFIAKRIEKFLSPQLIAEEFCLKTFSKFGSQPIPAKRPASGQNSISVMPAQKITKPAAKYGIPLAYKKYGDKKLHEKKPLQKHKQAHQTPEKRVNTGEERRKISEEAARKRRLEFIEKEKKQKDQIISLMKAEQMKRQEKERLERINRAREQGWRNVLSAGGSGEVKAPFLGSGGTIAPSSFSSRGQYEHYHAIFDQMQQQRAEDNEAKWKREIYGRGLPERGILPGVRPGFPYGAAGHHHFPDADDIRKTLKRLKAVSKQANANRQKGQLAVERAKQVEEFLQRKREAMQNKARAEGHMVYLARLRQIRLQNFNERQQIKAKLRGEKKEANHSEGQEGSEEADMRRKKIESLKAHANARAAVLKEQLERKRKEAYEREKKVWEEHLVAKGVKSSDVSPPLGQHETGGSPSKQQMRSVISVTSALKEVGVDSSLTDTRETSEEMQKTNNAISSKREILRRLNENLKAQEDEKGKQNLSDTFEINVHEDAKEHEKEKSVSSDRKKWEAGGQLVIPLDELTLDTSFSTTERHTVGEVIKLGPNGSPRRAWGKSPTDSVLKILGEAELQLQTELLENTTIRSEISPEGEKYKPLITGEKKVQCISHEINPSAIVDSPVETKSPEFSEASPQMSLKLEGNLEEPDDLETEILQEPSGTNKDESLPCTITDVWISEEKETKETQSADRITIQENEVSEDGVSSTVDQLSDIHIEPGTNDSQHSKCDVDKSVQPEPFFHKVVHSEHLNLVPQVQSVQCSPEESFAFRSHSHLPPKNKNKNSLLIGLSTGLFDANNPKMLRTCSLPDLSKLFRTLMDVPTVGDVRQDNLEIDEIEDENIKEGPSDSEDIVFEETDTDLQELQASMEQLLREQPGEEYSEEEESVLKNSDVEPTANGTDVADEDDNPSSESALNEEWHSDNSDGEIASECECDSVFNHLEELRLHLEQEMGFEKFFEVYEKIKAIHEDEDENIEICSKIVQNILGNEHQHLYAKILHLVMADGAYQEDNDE

[4] = biological target: T2, Phosphatidylinositol 5-phosphate 4-kinase type-2 beta (Homo sapiens) (UniProt P78356); assay: Selectivity interaction (ActivX KiNativ screen (kinase selectivity in THP-1 cell lysates)) EUB0000639a PIP4K2B; type: subcellular; conditions: lysate
T2 sequence (whole entry): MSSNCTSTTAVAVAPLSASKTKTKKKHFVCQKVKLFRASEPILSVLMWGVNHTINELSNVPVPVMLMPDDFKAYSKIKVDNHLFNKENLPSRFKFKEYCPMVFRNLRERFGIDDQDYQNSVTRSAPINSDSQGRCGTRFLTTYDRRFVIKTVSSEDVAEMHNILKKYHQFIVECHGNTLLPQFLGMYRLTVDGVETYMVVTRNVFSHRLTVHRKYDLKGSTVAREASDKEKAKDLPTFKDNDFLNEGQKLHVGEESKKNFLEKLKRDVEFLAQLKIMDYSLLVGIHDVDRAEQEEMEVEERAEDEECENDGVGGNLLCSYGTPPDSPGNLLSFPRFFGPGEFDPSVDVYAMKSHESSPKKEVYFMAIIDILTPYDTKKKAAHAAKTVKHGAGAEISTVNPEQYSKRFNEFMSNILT

[5] = system: Epidermal growth factor receptor (Homo sapiens), P00533 [UNDEFINED MUTATION]; assay: Selectivity interaction (KinomeScan (DiscoverX)) EUB0000045b EGFR; conditions: at 10 µM
[6] = biological target: Serine/threonine-protein kinase PRP4 homolog (Homo sapiens) (UniProt Q13523); assay: Selectivity interaction (KinomeScan (DiscoverX)) EUB0000045b PRPF4B
[7] = biological target: T3, Tyrosine-protein kinase ZAP-70 (Homo sapiens) (UniProt P43403); assay: Selectivity interaction (KinomeScan (DiscoverX)) EUB0000655a ZAP70; conditions: at 10 µM
T3 sequence (whole entry): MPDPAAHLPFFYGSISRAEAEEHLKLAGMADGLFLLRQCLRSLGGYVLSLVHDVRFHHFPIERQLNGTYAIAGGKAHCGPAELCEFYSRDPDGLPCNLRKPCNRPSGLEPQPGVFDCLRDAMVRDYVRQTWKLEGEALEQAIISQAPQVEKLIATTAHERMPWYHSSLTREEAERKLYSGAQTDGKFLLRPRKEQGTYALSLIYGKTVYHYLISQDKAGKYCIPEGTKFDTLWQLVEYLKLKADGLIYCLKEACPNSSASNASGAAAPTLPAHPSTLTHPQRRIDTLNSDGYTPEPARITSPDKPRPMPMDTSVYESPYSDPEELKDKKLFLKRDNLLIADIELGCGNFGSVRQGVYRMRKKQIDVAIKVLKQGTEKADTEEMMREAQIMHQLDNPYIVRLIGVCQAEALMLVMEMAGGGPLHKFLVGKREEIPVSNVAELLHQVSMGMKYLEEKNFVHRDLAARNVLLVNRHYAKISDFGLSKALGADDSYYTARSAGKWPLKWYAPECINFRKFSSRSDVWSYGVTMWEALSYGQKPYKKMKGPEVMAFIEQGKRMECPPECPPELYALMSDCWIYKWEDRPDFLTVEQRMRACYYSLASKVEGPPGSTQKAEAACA

Sequence of Histone-lysine N-methyltransferase 2A (Homo sapiens) (Q03164 1-2718 limits assumed): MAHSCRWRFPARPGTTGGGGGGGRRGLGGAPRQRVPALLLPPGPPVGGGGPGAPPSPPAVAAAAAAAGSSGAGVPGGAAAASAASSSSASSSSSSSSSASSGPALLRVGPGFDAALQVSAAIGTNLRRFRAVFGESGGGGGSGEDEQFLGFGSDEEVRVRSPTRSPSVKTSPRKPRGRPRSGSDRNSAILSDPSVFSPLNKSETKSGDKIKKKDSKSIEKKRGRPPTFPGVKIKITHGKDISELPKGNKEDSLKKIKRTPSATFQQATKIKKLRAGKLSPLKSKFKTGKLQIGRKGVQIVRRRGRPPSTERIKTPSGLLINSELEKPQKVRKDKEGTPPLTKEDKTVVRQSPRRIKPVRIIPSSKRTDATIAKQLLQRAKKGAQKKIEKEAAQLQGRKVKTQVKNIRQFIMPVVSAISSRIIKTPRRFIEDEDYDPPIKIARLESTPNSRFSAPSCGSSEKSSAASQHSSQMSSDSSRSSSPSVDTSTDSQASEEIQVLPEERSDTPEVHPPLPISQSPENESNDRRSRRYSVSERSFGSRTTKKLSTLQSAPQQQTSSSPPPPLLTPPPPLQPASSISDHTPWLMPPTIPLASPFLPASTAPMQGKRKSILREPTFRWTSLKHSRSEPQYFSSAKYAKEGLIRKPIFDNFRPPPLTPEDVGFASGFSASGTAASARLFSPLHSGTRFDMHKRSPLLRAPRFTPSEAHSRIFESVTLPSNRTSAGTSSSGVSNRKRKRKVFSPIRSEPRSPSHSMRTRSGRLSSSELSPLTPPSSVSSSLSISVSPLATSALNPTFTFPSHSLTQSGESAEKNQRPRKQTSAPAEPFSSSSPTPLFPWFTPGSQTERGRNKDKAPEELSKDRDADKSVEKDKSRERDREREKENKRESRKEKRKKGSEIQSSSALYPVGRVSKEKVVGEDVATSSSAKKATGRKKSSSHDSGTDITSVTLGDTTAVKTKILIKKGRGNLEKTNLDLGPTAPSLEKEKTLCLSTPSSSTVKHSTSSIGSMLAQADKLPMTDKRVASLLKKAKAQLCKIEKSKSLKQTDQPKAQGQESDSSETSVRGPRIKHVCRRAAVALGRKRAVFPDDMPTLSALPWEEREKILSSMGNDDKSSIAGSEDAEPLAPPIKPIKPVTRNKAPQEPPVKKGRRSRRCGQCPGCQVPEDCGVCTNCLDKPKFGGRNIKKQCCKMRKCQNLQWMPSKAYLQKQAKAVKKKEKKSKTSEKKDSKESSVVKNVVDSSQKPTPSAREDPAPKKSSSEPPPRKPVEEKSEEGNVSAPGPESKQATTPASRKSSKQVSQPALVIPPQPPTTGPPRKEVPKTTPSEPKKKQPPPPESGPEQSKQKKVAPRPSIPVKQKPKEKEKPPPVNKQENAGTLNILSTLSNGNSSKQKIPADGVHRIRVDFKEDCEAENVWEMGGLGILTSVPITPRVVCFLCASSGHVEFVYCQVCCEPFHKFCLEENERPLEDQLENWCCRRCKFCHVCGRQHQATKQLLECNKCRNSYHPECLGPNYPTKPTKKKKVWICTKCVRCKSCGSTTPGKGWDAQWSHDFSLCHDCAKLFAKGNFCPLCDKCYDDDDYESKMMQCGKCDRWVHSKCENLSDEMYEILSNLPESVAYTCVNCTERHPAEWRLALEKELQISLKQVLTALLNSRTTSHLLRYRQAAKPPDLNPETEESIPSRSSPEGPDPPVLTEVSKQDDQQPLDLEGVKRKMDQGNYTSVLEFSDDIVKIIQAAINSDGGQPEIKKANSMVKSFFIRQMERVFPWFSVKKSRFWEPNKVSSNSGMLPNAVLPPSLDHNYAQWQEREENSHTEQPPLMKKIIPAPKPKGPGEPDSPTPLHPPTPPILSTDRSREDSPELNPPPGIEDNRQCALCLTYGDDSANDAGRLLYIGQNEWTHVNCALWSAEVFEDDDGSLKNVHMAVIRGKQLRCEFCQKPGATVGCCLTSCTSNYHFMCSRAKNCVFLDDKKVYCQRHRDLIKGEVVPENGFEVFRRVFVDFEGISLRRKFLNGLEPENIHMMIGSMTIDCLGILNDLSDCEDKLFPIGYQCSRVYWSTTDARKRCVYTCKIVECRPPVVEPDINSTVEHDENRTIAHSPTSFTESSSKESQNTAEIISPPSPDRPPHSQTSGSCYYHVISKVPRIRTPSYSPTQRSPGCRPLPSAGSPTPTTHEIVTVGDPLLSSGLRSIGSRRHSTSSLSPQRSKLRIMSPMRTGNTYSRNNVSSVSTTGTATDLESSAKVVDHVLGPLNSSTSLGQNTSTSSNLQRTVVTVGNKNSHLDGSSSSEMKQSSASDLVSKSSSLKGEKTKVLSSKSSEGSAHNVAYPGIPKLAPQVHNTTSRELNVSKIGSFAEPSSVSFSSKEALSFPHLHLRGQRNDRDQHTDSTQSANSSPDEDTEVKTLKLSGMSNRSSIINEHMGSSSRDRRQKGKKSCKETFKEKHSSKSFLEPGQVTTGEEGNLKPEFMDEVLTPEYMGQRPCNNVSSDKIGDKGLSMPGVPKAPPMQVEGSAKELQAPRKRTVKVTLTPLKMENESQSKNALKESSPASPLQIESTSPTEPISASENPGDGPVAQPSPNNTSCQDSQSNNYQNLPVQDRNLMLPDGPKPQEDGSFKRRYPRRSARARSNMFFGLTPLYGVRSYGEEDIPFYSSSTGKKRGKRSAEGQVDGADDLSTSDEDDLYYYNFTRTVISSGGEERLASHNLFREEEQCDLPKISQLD
Sequence of Histone-lysine N-methyltransferase 2A (Homo sapiens) (Q03164 2719-3969 limits assumed): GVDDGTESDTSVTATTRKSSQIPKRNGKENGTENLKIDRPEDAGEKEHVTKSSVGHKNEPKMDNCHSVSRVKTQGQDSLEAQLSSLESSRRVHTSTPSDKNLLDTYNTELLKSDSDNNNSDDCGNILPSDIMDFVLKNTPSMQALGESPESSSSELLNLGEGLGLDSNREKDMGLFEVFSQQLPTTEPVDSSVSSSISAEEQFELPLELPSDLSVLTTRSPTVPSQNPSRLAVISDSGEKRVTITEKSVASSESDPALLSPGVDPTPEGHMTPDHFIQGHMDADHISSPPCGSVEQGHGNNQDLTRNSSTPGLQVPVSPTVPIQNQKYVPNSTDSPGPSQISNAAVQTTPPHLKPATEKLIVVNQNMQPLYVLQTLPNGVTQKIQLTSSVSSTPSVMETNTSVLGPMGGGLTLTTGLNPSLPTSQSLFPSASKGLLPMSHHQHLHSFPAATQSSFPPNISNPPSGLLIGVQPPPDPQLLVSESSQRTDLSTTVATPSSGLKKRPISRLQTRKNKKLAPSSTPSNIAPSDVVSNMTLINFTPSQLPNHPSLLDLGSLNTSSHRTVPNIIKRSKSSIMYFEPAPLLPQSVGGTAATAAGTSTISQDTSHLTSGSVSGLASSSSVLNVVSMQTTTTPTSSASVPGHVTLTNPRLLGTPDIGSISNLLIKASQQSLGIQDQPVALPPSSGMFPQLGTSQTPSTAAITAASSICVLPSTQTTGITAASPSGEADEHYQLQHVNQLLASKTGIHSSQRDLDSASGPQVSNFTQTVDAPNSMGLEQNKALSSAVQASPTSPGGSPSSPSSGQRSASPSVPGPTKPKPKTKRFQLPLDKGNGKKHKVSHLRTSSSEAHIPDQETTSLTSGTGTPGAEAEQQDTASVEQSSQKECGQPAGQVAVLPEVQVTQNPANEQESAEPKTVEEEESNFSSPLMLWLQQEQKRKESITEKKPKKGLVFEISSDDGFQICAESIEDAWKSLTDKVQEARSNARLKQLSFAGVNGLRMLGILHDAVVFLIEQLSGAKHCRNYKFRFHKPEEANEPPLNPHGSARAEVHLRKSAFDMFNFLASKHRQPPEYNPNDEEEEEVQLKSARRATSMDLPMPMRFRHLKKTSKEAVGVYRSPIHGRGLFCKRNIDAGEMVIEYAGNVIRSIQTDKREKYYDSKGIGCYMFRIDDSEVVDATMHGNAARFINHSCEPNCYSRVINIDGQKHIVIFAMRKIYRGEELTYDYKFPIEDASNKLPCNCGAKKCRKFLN
Sequence of Serine/threonine-protein kinase PRP4 homolog (Homo sapiens) (Q13523 whole entry): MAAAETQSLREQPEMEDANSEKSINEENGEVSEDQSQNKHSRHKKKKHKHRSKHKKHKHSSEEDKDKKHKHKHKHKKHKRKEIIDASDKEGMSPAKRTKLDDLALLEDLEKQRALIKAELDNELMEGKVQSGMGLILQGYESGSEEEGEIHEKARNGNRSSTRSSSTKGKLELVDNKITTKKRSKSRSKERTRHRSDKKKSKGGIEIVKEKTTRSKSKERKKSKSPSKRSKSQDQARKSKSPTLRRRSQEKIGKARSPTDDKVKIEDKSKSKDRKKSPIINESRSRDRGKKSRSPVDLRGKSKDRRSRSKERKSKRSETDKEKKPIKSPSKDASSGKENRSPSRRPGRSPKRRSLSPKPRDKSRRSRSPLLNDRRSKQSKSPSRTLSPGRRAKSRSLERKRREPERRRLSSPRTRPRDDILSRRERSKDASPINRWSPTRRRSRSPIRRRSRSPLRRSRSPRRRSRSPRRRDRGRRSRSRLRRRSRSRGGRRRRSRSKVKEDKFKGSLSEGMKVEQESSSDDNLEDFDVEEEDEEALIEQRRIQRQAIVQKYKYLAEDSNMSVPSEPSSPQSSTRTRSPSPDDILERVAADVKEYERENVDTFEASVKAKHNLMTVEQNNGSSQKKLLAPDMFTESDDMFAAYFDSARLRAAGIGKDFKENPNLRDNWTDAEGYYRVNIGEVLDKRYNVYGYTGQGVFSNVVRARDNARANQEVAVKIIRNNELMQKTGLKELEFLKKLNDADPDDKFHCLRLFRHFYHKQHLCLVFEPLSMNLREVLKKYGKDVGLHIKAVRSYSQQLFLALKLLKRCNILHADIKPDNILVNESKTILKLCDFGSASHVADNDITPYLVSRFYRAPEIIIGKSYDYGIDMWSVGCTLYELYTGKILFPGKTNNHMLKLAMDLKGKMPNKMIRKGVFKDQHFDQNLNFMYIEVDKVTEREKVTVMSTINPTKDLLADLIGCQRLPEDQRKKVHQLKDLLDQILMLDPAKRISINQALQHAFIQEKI

**Q.** With `Cc1cc(CN)cc(C)c1-c1ncn(C)c1-c1cncn1C` as the compound, how does the % activity ([1]; at 1 µM) read?
**A.** > 90%

**Q.** What about the % activity ([1]; at 10 µM) of the same compound?
**A.** > 80%

**Q.** How did the % of inhibition [2] turn out when `CC[C@@H]1[C@H](F)C(=O)N[C@@H]1COc1nccc2cc(C(N)=O)c(OC)cc12` [ZIMLOVISERTIB] was run?
**A.** 0.3%

**Q.** And the % of inhibition [3]?
**A.** 10.2%

**Q.** And the % of inhibition ([4]; at 0.01 µM)?
**A.** 11.7%

**Q.** What about the % of inhibition ([4]; at 0.04 µM) of the same compound?
**A.** -9.5%

**Q.** And the % of inhibition ([4]; at 0.2 µM)?
**A.** -6.6%

**Q.** What about the % of inhibition ([4]; at 1 µM) of the same compound?
**A.** 4%

**Q.** What about the % of inhibition ([4]; at 5 µM) of the same compound?
**A.** 0.1%

**Q.** Which % of control [5] does the source give for `C=CC(=O)Nc1cc(-n2c(=O)ccc3cnc4ccc(-c5ccc(NS(C)(=O)=O)cc5)cc4c32)ccc1C` here?
**A.** 62%

**Q.** And the % of control ([6]; at 1 µM)?
**A.** 95%

**Q.** And the % of control ([6]; at 10 µM)?
**A.** 89%

**Q.** For `CN(C)CCOc1ccc(-c2nc(-c3ccncc3)c(-c3ccc4c(c3)CC/C4=N\O)[nH]2)cc1`, which % of control [7] is on record?
**A.** 100%
